Article PMC12657586, “Therapeutic effect of an MRGPRX2/MRGPRB2 antagonist on LL-37-induced rosacea-like inflammation in mice” (Inflammation Research, 2025)

Molecular target: T1, MRGPRX2 (Mas-related G protein-coupled receptor X2) (Homo sapiens, UniProt Q96LB1)
T1 sequence (Q96LB1 1-330): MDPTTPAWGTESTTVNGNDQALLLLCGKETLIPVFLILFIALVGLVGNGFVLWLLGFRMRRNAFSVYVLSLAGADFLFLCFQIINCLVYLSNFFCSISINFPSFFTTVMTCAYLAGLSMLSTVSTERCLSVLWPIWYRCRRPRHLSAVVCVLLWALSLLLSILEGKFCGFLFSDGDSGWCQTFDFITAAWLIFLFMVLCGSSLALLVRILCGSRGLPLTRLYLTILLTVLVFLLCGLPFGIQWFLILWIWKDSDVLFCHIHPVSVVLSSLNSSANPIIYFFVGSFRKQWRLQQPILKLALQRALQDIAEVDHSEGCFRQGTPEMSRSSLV
Experiment: Fluo-4 calcium flux assay in MRGPRX2-transfected HEK-293 cells, antagonism of LL-37
Type: cell-based

COC(=O)c1cc2cc(NC(N)=O)ccc2cc1-c1cc2c3c(c(O)ccc3c1)C(C)C(C=O)=C2 (stereo not shown) [GE1111]
IC50: 12.3 µM
